Assay results from patent EP0360850B1, “ANTIMICROBIAL AGENTS” (GIVAUDAN-ROURE (INTERNATIONAL) S.A., priority 1988, dated 1989).
≈ marks a conversion by molar mass, not a printed value. Where two headings read alike, the source gives them in different places.

Legend:
[1] = test system: Pseudomonas aeruginosa; experiment: Preservative test in cosmetic lotion, weekly reinoculation; format: cell-based
Procedure: (§1) a. Cutting Oil Emulsions. […] Various aliquots of a 6% solution of the test compound in ethanol were added to cutting oil emulsions prepared by diluting Kutwell® 30 cutting oil concentrate 1 to 30 with water. These samples were inoculated with a culture of Ps. aeruginosa and incubated at 28°C on a rotary shaker. At weekly intervals, the samples were examined for microorganisms and then reinoculated and incubated. […] Cosmetic compositions. […] Serial dilutions of the compounds in dimethylformamide were added to a prepared, sterile cosmetic lotion of the following composition:
(§2) Samples of the lotion containing varying levels of the acrylonitrile derivatives were divided into two portions; one portion was inoculated with a spore suspension of A. niger, and the other portion with a 24-hour nutrient broth culture of Ps. aeruginosa. These two organisms are frequently found as contaminants in cosmetic products. The samples were incubated for a 4-week period with weekly examinations for the growth of the organisms. At weekly intervals, the samples were also reinoculated with the test organisms. Presence of fungal growth was determined macroscopically while bacterial contamination was determined by streaking one 4-mm loopful (0.01ml) of the lotion onto the surface of trypticase glucose extract agar (Baltimore Biological Laboratories, Baltimore, MD) containing 0.005% triphenyl tetrazolium chloride and letheen antidote. Results of these tests showing the minimum inhibitory concentration through the 4-week incubation period are tabulated in Table IV and show, once again, that the compounds where R is methyl or ethyl show a broad spectrum activity for the preservation of cosmetic products against the type of fungus and bacterium most likely to cause problems in cosmetics.

[2] = test system: Aspergillus niger; experiment: as above; format: cell-based; conditions: A.n.
Procedure: as §1, §2

[3] = read-out: Minimum Inhibitory Concentration Week 1
[4] = read-out: Minimum Inhibitory Concentration Week 2
[5] = read-out: Minimum Inhibitory Concentration Week 3
[6] = read-out: Minimum Inhibitory Concentration Week 4
[7] = Week 1, read-out: Minimum Inhibitory Concentration Week 1
[8] = Week 2, weekly reinoculation, read-out: Minimum Inhibitory Concentration Week 2
[9] = Week 3, weekly reinoculation, read-out: Minimum Inhibitory Concentration Week 3
[10] = Week 4, weekly reinoculation, read-out: Minimum Inhibitory Concentration Week 4

CCCCSC=C(Cl)C#N [Example 6]
MIC ([1]; cosmetic lotion, P.a., Week 1, read-out: Minimum Inhibitory Concentration Week 1): > 2000 µg/mL

CSC=C(Br)C#N [Example 1, α-Bromo-β-methylthio-acrylonitrile]
MIC [1, 3]: < 7.8 µg/mL | MIC [1, 4]: < 7.8 µg/mL | MIC [1, 5]: < 7.8 µg/mL | MIC [1, 6]: < 7.8 µg/mL | MIC [2, 7]: < 7.8 µg/mL | MIC [2, 8]: < 7.8 µg/mL | MIC [2, 9]: < 7.8 µg/mL | MIC [2, 10]: < 7.8 µg/mL

CSC=C(Cl)C#N [Example 2, α-Chloro-β-methylthio-acrylonitrile]
MIC [1, 3]: 31 to 62 µg/mL (≈ 232 to 464 µM) | MIC [1, 4]: 15 to 31 µg/mL (≈ 112 to 232 µM) | MIC [1, 5]: 15 to 31 µg/mL (≈ 112 to 232 µM) | MIC [1, 6]: 15 to 31 µg/mL (≈ 112 to 232 µM) | MIC [2, 7]: < 7.8 µg/mL | MIC [2, 8]: < 7.8 µg/mL | MIC [2, 9]: < 7.8 µg/mL | MIC [2, 10]: < 7.8 µg/mL

CCCSC=C(Cl)C#N [Example 5]
MIC [1, 3]: > 2000 µg/mL | MIC [1, 4]: 1000 to 2000 µg/mL (≈ 6190 to 12400 µM) | MIC [1, 5]: 1000 to 2000 µg/mL (≈ 6190 to 12400 µM) | MIC [1, 6]: 500 to 1000 µg/mL (≈ 3090 to 6190 µM) | MIC [2, 7]: 125 to 250 µg/mL (≈ 773 to 1550 µM) | MIC [2, 8]: 125 to 250 µg/mL (≈ 773 to 1550 µM) | MIC [2, 9]: 125 to 250 µg/mL (≈ 773 to 1550 µM) | MIC [2, 10]: 125 to 250 µg/mL (≈ 773 to 1550 µM)

CCSC=C(Br)C#N [Example 4, α-bromo-β-ethylthio-acrylonitrile]
MIC [1, 3]: 31 to 62 µg/mL (≈ 161 to 323 µM) | MIC [1, 4]: 31 to 62 µg/mL (≈ 161 to 323 µM) | MIC [1, 5]: 31 to 62 µg/mL (≈ 161 to 323 µM) | MIC [1, 6]: 31 to 62 µg/mL (≈ 161 to 323 µM) | MIC [2, 7]: < 7.8 µg/mL | MIC [2, 8]: < 7.8 µg/mL | MIC [2, 9]: < 7.8 µg/mL | MIC [2, 10]: < 7.8 µg/mL

CCSC=C(Cl)C#N [Example 3, α-chloro-β-ethylthio-acrylonitrile]
MIC [1, 3]: 250 to 500 µg/mL (≈ 1690 to 3390 µM) | MIC [1, 4]: 125 to 250 µg/mL (≈ 847 to 1690 µM) | MIC [1, 5]: 125 to 250 µg/mL (≈ 847 to 1690 µM) | MIC [1, 6]: 125 to 250 µg/mL (≈ 847 to 1690 µM) | MIC [2, 7]: < 7.8 µg/mL | MIC [2, 8]: < 7.8 µg/mL | MIC [2, 9]: < 7.8 µg/mL | MIC [2, 10]: < 7.8 µg/mL
